Data as given in PMC7673765 (Science Advances, 2020).
Entries after “also recorded” stand apart in the source; their conditions may differ.

Legend:
LMTK3 = test: Western blots of LMTK3 in BC cell lines; type: cell-based, human; details: for endogenous LMTK3 protein levels (Western blot): increasing concentrations of HSP90 inhibitor, 72 hours
ERα = test: Western blots of ERα in BC cell lines; type: cell-based, human
HSP90 = test: Western blots of chaperones in BC cell lines; type: cell-based, human; details: increasing concentrations of C28, 48 hours
CDC37 = test: Western blots of chaperones in BC cell lines; type: cell-based, human; details: increasing concentrations of C28, 48 hours
human HSP90α = human HSP90α (Homo sapiens, UniProt P07900); test: Isothermal titration calorimetry; type: binding; details: 0.2 mM C28 injected into 20 μM human HSP90α
BC cells = test: Cell viability assay; type: cell-based; details: Homo sapiens, 72 h, read-out: IC50 values, growth of BC cells
[1] = tested on: NCI-60 panel of tumor cell lines; test: NCI-60 one-dose screening; type: cell-based; details: Homo sapiens, 24 h, read-out: inhibition of all cancer cell lines
NCI-60 cell lines = test: NCI-60 five-dose evaluation; type: cell-based, human; details: five doses
[2] = tested on: BC cell lines (MCF7, T47D, MDA-MB-231); test: Cell death and apoptosis; type: cell-based, human; details: increasing concentrations of C28, 72 hours
MCF12A = test: Cell death and apoptosis; type: cell-based, human; details: even at high concentrations of C28 and longer time points
Pharmacokinetics in mice = type: in vivo; details: male, BALB/c (nude), mouse, plasma
MMTV-Neu mammary tumors = test: MMTV-Neu transgenic mammary tumor model; type: in vivo, mice
[3] = Histopathologic analysis of tumor sections and organs, MMTV-Neu mice; type: in vivo; details: C28 10 mg/kg oral daily
MDA-MB-231 xenografts = test: MDA-MB-231 xenograft mouse model; type: in vivo, NSG mice; details: C28 10 mg/kg oral daily; after 23 days
IRAK4 = biological target: T1, IRAK4 (Homo sapiens, UniProt Q9NWZ3); test: Western blots of kinases in BC cell lines; details: 10 μM C28, different time points
T1 sequence (Q9NWZ3 1-460): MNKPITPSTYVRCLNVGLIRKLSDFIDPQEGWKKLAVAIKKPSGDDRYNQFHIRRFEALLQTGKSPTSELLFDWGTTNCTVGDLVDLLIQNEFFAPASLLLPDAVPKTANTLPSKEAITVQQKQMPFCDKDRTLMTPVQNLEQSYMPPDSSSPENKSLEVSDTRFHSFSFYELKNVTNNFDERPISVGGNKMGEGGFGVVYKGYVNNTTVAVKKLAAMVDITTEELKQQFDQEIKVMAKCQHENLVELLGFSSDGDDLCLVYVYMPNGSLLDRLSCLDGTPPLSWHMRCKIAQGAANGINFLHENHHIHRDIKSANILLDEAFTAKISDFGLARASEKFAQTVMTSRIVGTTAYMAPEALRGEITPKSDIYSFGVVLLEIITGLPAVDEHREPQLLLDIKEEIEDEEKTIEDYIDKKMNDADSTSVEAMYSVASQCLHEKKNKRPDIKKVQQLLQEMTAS

HIPK2 = HIPK2 (Homo sapiens, UniProt Q9H2X6); test: Western blots of kinases in BC cell lines; details: 10 μM C28, different time points
HSP70 = test: Western blots of HSP70 in BC cell lines; type: cell-based, human; details: increasing concentrations of HSP90 inhibitor, 72 hours
[4] = biological target: T2, human CDC37 (cell division cycle 37), recombinant (human, UniProt Q16543 1-378); test: MST
T2 sequence (looked up): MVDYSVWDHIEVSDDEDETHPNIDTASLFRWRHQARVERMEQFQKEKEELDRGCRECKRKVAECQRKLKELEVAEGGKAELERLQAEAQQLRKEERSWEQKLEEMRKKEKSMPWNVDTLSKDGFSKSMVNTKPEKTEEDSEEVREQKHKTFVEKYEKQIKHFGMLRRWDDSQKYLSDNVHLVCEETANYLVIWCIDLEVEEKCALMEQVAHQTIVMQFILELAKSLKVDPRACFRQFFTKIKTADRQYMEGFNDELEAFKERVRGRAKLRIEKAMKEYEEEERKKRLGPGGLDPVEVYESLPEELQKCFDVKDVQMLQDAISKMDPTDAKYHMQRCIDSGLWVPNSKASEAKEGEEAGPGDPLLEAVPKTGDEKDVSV

Chain of HIPK2 (Q9H2X6 whole entry): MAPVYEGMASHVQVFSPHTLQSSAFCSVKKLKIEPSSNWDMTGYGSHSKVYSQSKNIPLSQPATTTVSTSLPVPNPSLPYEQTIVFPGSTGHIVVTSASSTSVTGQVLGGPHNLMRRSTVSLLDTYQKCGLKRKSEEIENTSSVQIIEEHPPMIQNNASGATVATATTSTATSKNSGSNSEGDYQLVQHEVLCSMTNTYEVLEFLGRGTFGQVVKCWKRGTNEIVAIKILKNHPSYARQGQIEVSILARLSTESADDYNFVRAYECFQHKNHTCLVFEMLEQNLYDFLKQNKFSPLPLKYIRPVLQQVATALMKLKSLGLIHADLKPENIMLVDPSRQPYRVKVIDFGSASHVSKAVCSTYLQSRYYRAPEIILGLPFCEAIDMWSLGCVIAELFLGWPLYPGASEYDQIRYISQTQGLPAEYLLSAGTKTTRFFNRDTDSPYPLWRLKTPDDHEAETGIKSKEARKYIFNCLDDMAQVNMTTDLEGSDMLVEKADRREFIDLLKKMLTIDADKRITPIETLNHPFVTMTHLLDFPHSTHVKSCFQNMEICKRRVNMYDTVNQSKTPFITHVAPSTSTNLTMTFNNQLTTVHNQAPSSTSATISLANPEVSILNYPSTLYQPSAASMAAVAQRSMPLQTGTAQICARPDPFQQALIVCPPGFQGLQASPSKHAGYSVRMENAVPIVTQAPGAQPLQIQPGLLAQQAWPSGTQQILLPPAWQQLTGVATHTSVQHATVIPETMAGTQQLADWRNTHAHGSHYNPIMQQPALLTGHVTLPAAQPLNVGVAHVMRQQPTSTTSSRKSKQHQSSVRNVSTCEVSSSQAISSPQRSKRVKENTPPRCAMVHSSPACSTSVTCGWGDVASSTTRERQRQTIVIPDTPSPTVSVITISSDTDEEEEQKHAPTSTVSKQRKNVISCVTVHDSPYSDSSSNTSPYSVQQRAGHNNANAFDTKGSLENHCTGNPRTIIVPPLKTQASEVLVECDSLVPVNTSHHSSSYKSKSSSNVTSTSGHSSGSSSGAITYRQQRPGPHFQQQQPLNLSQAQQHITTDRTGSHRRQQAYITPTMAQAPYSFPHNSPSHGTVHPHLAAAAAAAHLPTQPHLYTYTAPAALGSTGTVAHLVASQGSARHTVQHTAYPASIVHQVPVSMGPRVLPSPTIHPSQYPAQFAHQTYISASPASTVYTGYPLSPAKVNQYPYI

Q: For `FC(F)(F)Oc1cccc(-c2cnc3ccc(-c4ccncc4)nn23)c1` [C28, 6-(pyridin-4-yl)-3-(3-(trifluoromethoxy)phenyl)imidazo[1,2-b]pyridazine], which “LMTK3 protein levels (Western blot)” value (LMTK3; increasing concentrations of C28, different time points) is on record?
A: time- and dose-dependent degradation of LMTK3

Q: And the “protein levels of ERα (Western blot)” value (ERα; BC cell lines treated with C28)?
A: decreased protein levels of ERα

Q: What about the “protein levels of HSP90 (Western blot)” value (HSP90) of the same molecule?
A: no effect

Q: What about the “protein levels of CDC37 (Western blot)” value (CDC37) of the same molecule?
A: no effect

Q: What about the “binding to HSP90α (ITC)” value (human HSP90α) of the same molecule?
A: no detectible heat of interaction; also recorded: does not bind to HSP90

Q: What about the IC50 (BC cells) of the same molecule?
A: 6.5 to 8.64 µM

Q: And the inhibition at 10 µM [1]?
A: > 50%

Q: What about the “sensitivity of renal cancer cells” value (NCI-60 cell lines) of the same molecule?
A: more sensitive

Q: What about the “apoptosis of BC cell lines” value [2] of the same molecule?
A: triggered apoptosis

Q: And the “cell death of nontransformed MCF12A” value (MCF12A)?
A: low percentage of cell death

Q: And the half-life (Pharmacokinetics in mice; ip, 10 mg/kg, T1/2, plasma)?
A: ~59 min

Q: What about the Cmax (Pharmacokinetics in mice; iv, 5 mg/kg) of the same molecule?
A: 4.3 µM

Q: And the half-life (Pharmacokinetics in mice; iv, 5 mg/kg, half-life (T1/2))?
A: ~10 min

Q: What about the Cmax (Pharmacokinetics in mice; po, 10 mg/kg) of the same molecule?
A: 632 ng/mL

Q: And the half-life (Pharmacokinetics in mice; po, 10 mg/kg, T1/2, plasma)?
A: ~62 min

Q: And the “Ki-67 IHC analysis of tumor sections” value (MMTV-Neu mammary tumors; C28 10 mg/kg)?
A: decreased proliferation

Q: And the “LMTK3 expression in tumors (IHC staining)” value (MMTV-Neu mammary tumors; C28 10 mg/kg)?
A: reduction of LMTK3 expression

Q: And the “tumor growth compared to the vehicle-treated group” value (MMTV-Neu mammary tumors; C28 10 mg/kg oral daily)?
A: nearly completely abrogated tumor growth

Q: What about the “toxicity (histopathology of tumor, lung, stomach, heart, kidney, liver, spleen)” value [3] of the same molecule?
A: lack of toxicity

Q: And the “tumor growth compared to the control group” value (MDA-MB-231 xenografts)?
A: significantly impeded growth

Q: And the “IRAK4 protein levels (Western blot)” value (IRAK4)?
A: degradation

Q: What about the “HIPK2 protein levels (Western blot)” value (HIPK2) of the same molecule?
A: degradation

Q: For `CCNC(=O)c1noc(-c2cc(C(C)C)c(O)cc2O)c1-c1ccc(CN2CCOCC2)cc1` [NVP-AUY922], which “endogenous LMTK3 protein levels (Western blot)” value (LMTK3) is on record?
A: reduction of endogenous LMTK3 protein levels

Q: And the “ERα levels (Western blot)” value (ERα; BC cell lines, HSP90 inhibitor, 72 hours)?
A: down-regulation of ERα

Q: And the “HSP70 levels (Western blot)” value (HSP70)?
A: induction of HSP70

Q: With `COC1=C2C[C@@H](C)C[C@H](OC)[C@H](O)[C@@H](C)/C=C(\C)[C@H](OC(N)=O)[C@@H](OC)/C=C\C=C(/C)C(=O)NC(=CC1=O)C2=O` [geldanamycin] as the molecule, how does the “endogenous LMTK3 protein levels (Western blot)” value (LMTK3) read?
A: reduction of endogenous LMTK3 protein levels

Q: What about the “HSP70 levels (Western blot)” value (HSP70) of the same molecule?
A: induction of HSP70

B1: LMTK3 catalytic domain (LMTK3cat; amino acids 134 to 444) (domain or fragment, UniProt Q96Q04 105-415, looked up)
chain: LAEVSLPMPAPQPSHSDMTTPLGLSRQHLSYLQEIGSGWFGKVILGEIFSDYTPAQVVVKELRASAGPLEQRKFISEAQPYRSLQHPNVLQCLGLCVETLPFLLIMEFCQLGDLKRYLRAQRPPEGLSPELPPRDLRTLQRMGLEIARGLAHLHSHNYVHSDLALRNCLLTSDLTVRIGDYGLAHSNYKEDYYLTPERLWIPLRWAAPELLGELHGTFMVVDQSRESNIWSLGVTLWELFEFGAQPYRHLSDEEVLAFVVRQQHVKLARPRLKLPYADYWYDILQSCWRPPAQRPSASDLQLQLTYLLSER
modifications: covalently labeled with a red NHS-647 fluorophore (NT647) for MST
Q: For B1, which Kd [4] is on record?
A: 2.21 ± 1.17 µM
